IC50 data for 25 compounds are collected here from patent US12516038B2, “Inhibitors of antigen presentation by HLA-DR” (Janssen Pharmaceutica NV, priority 2020, dated 2026).

A word on the IC50: it is the midpoint of a concentration-inhibition curve. High values mean weaker potency in that assay, low ones greater potency in that assay.

One experiment concerns the target HLA-DRB1*0401 (Homo sapiens (Human), UniProt P01903+P01911, A100K/A169T/DEL228-266/F76Y/I96L/K127E/L162R/M171V/N62H/P40V/Q125Y/R42H/S133A/S149N/S66Y/V115G/V209L/W38E). The experiment is described as follows: HLA-DR4 HTRF assay. It is filed as binding. Conditions: inhibition of loading of Alexa Fluor 647-labeled Cit-CII peptide onto HLA-DR4 (CLIP cleaved). The method in brief: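 HLA-DRB1*04:01 construct (α/β fused to human Fc, CLIP pre-cleaved by HRV3C overnight at 4° C) at 3 nM was preincubated 45 min with compound and 1 nM anti-Fc-Tb donor, then 40 nM Alexa647-Cit-CII1236-1249 peptide added. After 90 min at 37° C, the 665/620 nm HTRF ratio gave % inhibition; IC50 by nonlinear regression.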

Experiment [1] has as its system HLA-DR4 restricted mouse T cell hybridoma line (DR4.CII.36.8) with HLA-DRB1*04:01-expressing Boleth cells. The experiment is described as follows: HLA-DR4-restricted peptide-specific T cell-based assay (hybridoma assay). Conditions: Mus musculus, T-cell, 6 h, inhibition of IL-2 production, CII259-273 peptide presented by Boleth cells. In a few lines:
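IC50 values derive from 4-parameter logistic fits of IL-2 AlphaLISA signal over 8-point duplicate titrations. Compound and HLA-DRB1*04:01 Boleth APCs were preincubated 1 h, 37° C., before adding CII259-273-restricted DR4.CII.36.8 hybridoma cells with peptide for 6 h at 37° C., in DMEM/1% FCS.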

Experiment [2] has as its system human peripheral blood CD4+ helper T cells. The experiment is described as follows: Pan-CD4+ T cell activation (off-target assay). It is filed as cell-based. Conditions: Homo sapiens, T-cell, 24 h, anti-CD3/anti-CD28 stimulation, IL-2 production by ELISA. From the text:
The counter-screening was made through an HLA-DR-independent assay (Pan-CD4+ T cell activation assay), i.e., TCR-stimulated pan-T cell activation assay, and consists of activating T cell directly with agonistic antibody targeting the T cell receptor. The lack of inhibition in the counter-screening assay reflects that the inhibition of T cell activation in the HLA-DR4 restricted peptide-specific T cell based assay with the small molecule inhibitors is due to impaired antigen presentation on HLA-DR to the T cell and not due to a direct inhibition of the T cell function by an off-target mechanism (i.e., independently of targeting HLA-DR).
Pan-CD4+ T Cell Activation
Compounds were tested using a pan-T cell activation assay. In this assay, anti-human CD3 antibody (BD Pharmingen #55336) pre-coated at 1 μg/mL to a 96-well assay plate and 1 μg/ml soluble anti-human CD28 (EBioscience #16-0289-85) antibody were used for activating human peripheral blood CD4+ helper T cells (no HLA-DR-expressing APC were present in this assay format), in the presence of compounds (or vehicle control) for 24 hrs. IL-2 production was measured in the culture supernatant by ELISA (Human IL-2 Duo Set ELISA #DY202 from R&D Systems).
In general terms: An ELISA detects its analyte on a solid surface through an enzyme-linked reagent.

For `O=C1CCOc2cc(OC(c3ccncc3)c3cccc(F)c3)ccc21` (racemic) [Example 2, (R,S)-7-((3-Fluorophenyl)(pyridin-4-yl)methoxy)chroman-4-one], the values for the IC50 (at HLA-DRB1*0401; in experiment [1]; in experiment [2]) were 1 µM, 2.8 µM and greater than 15 µM, respectively.
In the case of `O=C1CCOc2cc(OC(c3ccncc3)c3ccc(F)cc3)ccc21` (racemic) [Example 3, (R,S)-7-((4-Fluorophenyl)(pyridin-4-yl)methoxy)chroman-4-one], the values for the IC50 (on HLA-DRB1*0401; in experiment [1]; in experiment [2]) were 0.99 µM, 3.7 µM and greater than 15 µM, respectively.
On the same counts, the results for `NC(=O)c1ccc(C(Oc2ccc3c(c2)OCCC3=O)c2ccncc2)cc1` (racemic) [Example 11, (R,S)-4-(((4-Oxochroman-7-yl)oxy)(pyridin-4-yl)methyl)benzamide] are 0.65 µM, 1.2 µM and greater than 15 µM.
Turning to `COc1ccc(C(Oc2ccc3c(c2)OCCC3=O)c2ccncc2)cc1` (racemic) [Example 12, (R,S)-7-((4-Methoxyphenyl)(pyridin-4-yl)methoxy)chroman-4-one], the values for the IC50 (at HLA-DRB1*0401; in experiment [1]; in experiment [2]) were 1.2 µM, 1.6 µM and greater than 15 µM, respectively.
For the compound `COc1ccccc1C(Oc1ccc2c(c1)OCCC2=O)c1ccncc1` (racemic) [Example 14, 7-((2-Methoxyphenyl)(pyridin-4-yl)methoxy)chroman-4-one], the values for the IC50 (against HLA-DRB1*0401; in experiment [1]; in experiment [2]) were 2.4 µM, 5 µM and greater than 15 µM, respectively.
The like results for `O=C1CCOc2cc(OC(c3ccccc3)c3ccncc3)ccc21` (racemic) [Example 114, (R,S)-7-(Phenyl(pyridin-4-yl)methoxy)chroman-4-one] were, in that order, 3.4 µM, 11 µM and greater than 10 µM.
For `O=C1CCOc2cc(OC(c3ccccc3)c3cccnc3)ccc21` (racemic) [Example 115, (R,S)-7-(Phenyl(pyridin-3-yl)methoxy)chroman-4-one], the figures for the IC50 (against HLA-DRB1*0401; in experiment [1]; in experiment [2]) were 5 µM, 12 µM and 15 µM, respectively.
`CCC1COc2cc(OCc3ccncc3)ccc2C1=O` (racemic) [Example 120, (R,S)-3-Ethyl-7-(pyridin-4-ylmethoxy)chroman-4-one]: the IC50 is 1.2 µM at HLA-DRB1*0401, 5.1 µM in experiment [1] and greater than 15 µM in experiment [2].
For the compound `Cc1c(OC2CCc3cc(C(N)=O)ccc32)ccc2c1OCCC2=O` (racemic) [Example 121, (R,S)-1-((8-Methyl-4-oxochroman-7-yl)oxy)-2,3-dihydro-1H-indene-5-carboxamide], the values for the IC50 (against HLA-DRB1*0401; in experiment [1]; in experiment [2]) were 0.63 µM, 8.1 µM and greater than 15 µM, respectively.
For the compound `O=C1CCOc2cc(O[C@H](c3ccncc3)c3ccccc3F)ccc21` (single isomer, unassigned) [Example 1a, (*R)-7-((2-Fluorophenyl)(pyridin-4-yl)methoxy)chroman-4-one], the values for the IC50 (against HLA-DRB1*0401; in experiment [1]; in experiment [2]) were 1 µM, 3.4 µM and greater than 15 µM, respectively.
The like results for `O=C1CCOc2cc(O[C@@H](c3ccncc3)c3ccccc3F)ccc21` (single isomer, unassigned) [Example 1b, (*S)-7-((2-Fluorophenyl)(pyridin-4-yl)methoxy)chroman-4-one] were, in that order, 1.2 µM, 3.1 µM and 3.1 µM.
The like results for `O=C1CCOc2cc(O[C@H](c3ccncc3)c3cccc(F)c3)ccc21` (single isomer, unassigned) [Example 2a, (*R)-7-((3-Fluorophenyl)(pyridin-4-yl)methoxy)chroman-4-one] were, in that order, 1.6 µM, 1.7 µM and 15 µM.
With `O=C1CCOc2cc(O[C@@H](c3ccncc3)c3cccc(F)c3)ccc21` (single isomer, unassigned) [Example 2b, (*S)-7-((3-Fluorophenyl)(pyridin-4-yl)methoxy)chroman-4-one], the IC50 on HLA-DRB1*0401 is 1.8 µM; in experiment [1], 3.9 µM; in experiment [2], greater than 15 µM.
As to `O=C1CCOc2cc(O[C@@H](c3ccncc3)c3ccc(F)cc3)ccc21` (single isomer, unassigned) [Example 3a, (*R)-7-((4-Fluorophenyl)(pyridin-4-yl)methoxy)chroman-4-one], the IC50 against HLA-DRB1*0401 was determined as 1.6 µM; in experiment [1] it was 4.2 µM; in experiment [2] it was 15 µM.
As to `O=C1CCOc2cc(O[C@H](c3ccncc3)c3ccc(F)cc3)ccc21` (single isomer, unassigned) [Example 3b, (*S)-7-((4-Fluorophenyl)(pyridin-4-yl)methoxy)chroman-4-one], the IC50 was 1.3 µM on HLA-DRB1*0401, 2.1 µM in experiment [1] and greater than 15 µM in experiment [2].
On the same counts, the results for `COc1ccc(COc2cccc([C@H](Oc3ccc4c(c3)OCCC4=O)c3ccncc3)c2)cc1` (single isomer, unassigned) [Example 4a, (*R)-7-((3-((4-Methoxybenzyl)oxy)phenyl)(pyridin-4-yl)methoxy)chroman-4-one] are 6.9 µM, 2.9 µM and 7.8 µM.
On the same counts, the results for `COc1ccc(COc2cccc([C@@H](Oc3ccc4c(c3)OCCC4=O)c3ccncc3)c2)cc1` (single isomer, unassigned) [Example 4b, (*S)-7-((3-((4-Methoxybenzyl)oxy)phenyl)(pyridin-4-yl)methoxy)chroman-4-one] are 7.9 µM, 2.6 µM and 15 µM.
Consider `O=C1CCOc2cc(O[C@H](c3ccncc3)c3cccc(O)c3)ccc21` (single isomer, unassigned) [Example 5a, (*R)-7-((3-Hydroxyphenyl)(pyridin-4-yl)methoxy)chroman-4-one], for which the IC50 against HLA-DRB1*0401 was 14 µM; in experiment [1] it was 1.9 µM; in experiment [2] it was 2.8 µM.
As to `N#Cc1ccccc1[C@H](Oc1ccc2c(c1)OCCC2=O)c1ccncc1` (single isomer, unassigned) [Example 7a, (*R)-2-(((4-Oxochroman-7-yl)oxy)(pyridin-4-yl)methyl)benzonitrile], the IC50 against HLA-DRB1*0401 is 0.69 µM; in experiment [1], 4.6 µM; in experiment [2], 4.4 µM.
Consider `NC(=O)c1cccc([C@@H](Oc2ccc3c(c2)OCCC3=O)c2ccncc2)c1` (single isomer, unassigned) [Example 9a, (*R)-3-(((4-oxochroman-7-yl)oxy)(pyridin-4-yl)methyl)benzamide], for which the IC50 was 0.92 µM on HLA-DRB1*0401, 6.3 µM in experiment [1] and 4.7 µM in experiment [2].
With `Cc1c(O[C@@H]2CCCc3cc(C(N)=O)ccc32)ccc2c1OCCC2=O` (single isomer, unassigned) [Example 123a, (*R)-5-((8-methyl-4-oxochroman-7-yl)oxy)-5,6,7,8-tetrahydronaphthalene-2-carboxamide], the results for the IC50 (against HLA-DRB1*0401; in experiment [1]) were 0.63 µM and 7.9 µM, respectively.
Consider `Cc1c(O[C@H]2CCCc3cc(C(N)=O)ccc32)ccc2c1OCCC2=O` (single isomer, unassigned) [Example 123b, (*S)-5-((8-methyl-4-oxochroman-7-yl)oxy)-5,6,7,8-tetrahydronaphthalene-2-carboxamide], for which the IC50 against HLA-DRB1*0401 is 0.57 µM; in experiment [1] it was 6.3 µM.
The like results for `Cc1c(O[C@@H]2CCc3cnccc32)ccc2c1OCCC2=O` (single isomer, unassigned) [Example 124a, (*R)-7-((6,7-dihydro-5H-cyclopenta[c]pyridin-5-yl)oxy)-8-methylchroman-4-one] were, in that order, 0.57 µM and 14 µM.
Regarding `Cc1c(O[C@H]2CCc3cnccc32)ccc2c1OCCC2=O` (single isomer, unassigned) [Example 124b, (*S)-7-((6,7-dihydro-5H-cyclopenta[c]pyridin-5-yl)oxy)-8-methylchroman-4-one], the IC50 at HLA-DRB1*0401 turned out to be 0.74 µM; in experiment [1], 6 µM.
On the same counts, the results for `Cc1cc(COc2ccc3c(c2C(C)C)OCCC3=O)cc(C)n1` [Example 117, 7-((2,6-Dimethylpyridin-4-yl)methoxy)-8-isopropylchroman-4-one] are 0.68 µM and 3.1 µM.
